Laboratory results from ChEMBL document CHEMBL3044786, “Synthesis and nematocidal activity of ascaridole derivatives against Meloidogyne incognita and Aphelenchoides besseyi” (J Pestic Sci, 2007).
≈ marks a conversion by molar mass, not a printed value.

Columns and labels:
Meloidogyne incognita [1] = assay: Nematocidal activity against Meloidogyne incognita (root-knot nematode) assessed as mortality at 100 ug/ml after 24 hr; type: functional
Aphelenchoides besseyi [2] = assay: Nematocidal activity against Aphelenchoides besseyi assessed as mortality at 200 ug/ml after 24 hr; type: functional
Aphelenchoides besseyi [3] = assay: Nematocidal activity against Aphelenchoides besseyi assessed as mortality after 24 hr; type: functional
Meloidogyne incognita [4] = assay: Nematocidal activity against Meloidogyne incognita (root-knot nematode) assessed as mortality after 24 hr; type: functional
[5] = Toxicity in Rattus norvegicus (rat); type: organism-based; conditions: in vivo, read-out: LC50 (the source's name)

C=C(C)[C@H]1C[C@H]2OO[C@@H]1C(OC(C)=O)=C2C
mortality at 100 µg/mL (Meloidogyne incognita [1]): 100% | mortality at 200 µg/mL (Aphelenchoides besseyi [2]): < 50% | LC50 (Aphelenchoides besseyi [3]): 302 µg/mL (≈ 1350 µM) | LC50 (Meloidogyne incognita [4]): 50 µg/mL (≈ 223 µM)

COC(=O)C12C=CC(C(C)C)(CC1)OO2 (stereo not drawn)
mortality at 100 µg/mL (Meloidogyne incognita [1]): 100% | mortality at 200 µg/mL (Aphelenchoides besseyi [2]): 100% | LC50 (Aphelenchoides besseyi [3]): 2 µg/mL (≈ 9.42 µM) | LC50 (Meloidogyne incognita [4]): 2 µg/mL (≈ 9.42 µM)

CC(C)C12C=CC(C)(CC1)OO2 (stereo not drawn) [ASCARIDOLE]
mortality at 100 µg/mL (Meloidogyne incognita [1]): 100% | mortality at 200 µg/mL (Aphelenchoides besseyi [2]): < 50% | LC50 (Aphelenchoides besseyi [3]): 365 µg/mL (≈ 2170 µM) | LC50 (Meloidogyne incognita [4]): 52 µg/mL (≈ 309 µM)

CNC(=O)O/N=C(\SC)C(=O)N(C)C [OXAMYL]
LD50 [5]: 3.1 mg/kg | LC50 (Aphelenchoides besseyi [3]): 0.1 µg/mL (≈ 0.456 µM) | LC50 (Meloidogyne incognita [4]): 0.07 µg/mL (≈ 0.319 µM)

CC(C)C12C=CC(CO)(CC1)OO2 (stereo not drawn)
mortality at 100 µg/mL (Meloidogyne incognita [1]): 100% | mortality at 200 µg/mL (Aphelenchoides besseyi [2]): < 50% | LC50 (Aphelenchoides besseyi [3]): 402 µg/mL (≈ 2180 µM) | LC50 (Meloidogyne incognita [4]): 55 µg/mL (≈ 299 µM)

C=C(C)[C@H]1C[C@@H]2OO[C@H]1C=C2C
mortality at 100 µg/mL (Meloidogyne incognita [1]): 100% | LC50 (Aphelenchoides besseyi [3]): 50 µg/mL (≈ 301 µM) | LC50 (Meloidogyne incognita [4]): 23 µg/mL (≈ 138 µM)

C=C(C)[C@H]1C[C@H]2OO[C@@H]1C=C2C
mortality at 100 µg/mL (Meloidogyne incognita [1]): 100% | LC50 (Aphelenchoides besseyi [3]): 21 µg/mL (≈ 126 µM) | LC50 (Meloidogyne incognita [4]): 12 µg/mL (≈ 72.2 µM)

CC1=C[C@H]2OO[C@@H]1C[C@@H]2C(C)C
mortality at 100 µg/mL (Meloidogyne incognita [1]): 100% | LC50 (Aphelenchoides besseyi [3]): 69 µg/mL (≈ 410 µM) | LC50 (Meloidogyne incognita [4]): 25 µg/mL (≈ 149 µM)

CC(C)C12C=CC(C(=O)O)(CC1)OO2 (stereo not drawn)
mortality at 100 µg/mL (Meloidogyne incognita [1]): 100% | mortality at 200 µg/mL (Aphelenchoides besseyi [2]): 100% | LC50 (Aphelenchoides besseyi [3]): 4 µg/mL (≈ 20.2 µM) | LC50 (Meloidogyne incognita [4]): 2 µg/mL (≈ 10.1 µM)

C=C(C)[C@H]1C[C@@H]2OO[C@H]1C(OC(C)=O)=C2C
mortality at 100 µg/mL (Meloidogyne incognita [1]): 100% | LC50 (Aphelenchoides besseyi [3]): 306 µg/mL (≈ 1360 µM) | LC50 (Meloidogyne incognita [4]): 51 µg/mL (≈ 227 µM)

CC1=C[C@@H]2OO[C@H]1C[C@@H]2C(C)C
mortality at 100 µg/mL (Meloidogyne incognita [1]): 100% | LC50 (Aphelenchoides besseyi [3]): 110 µg/mL (≈ 654 µM) | LC50 (Meloidogyne incognita [4]): 51 µg/mL (≈ 303 µM)
